Data on one molecule can be found in US7323436B2, “Adduct having an acidic solution of sparingly-soluble group IIA complexes” (priority 1999, dated 2008).

A short description of this data set: Contact with human skin and nose. The conditions noted are these: pH of less than 0.5. In kind it is in vivo. The text has this:
As discussed above, AGIIS has relatively less dehydrating properties (such as charring sucrose) as compared to the saturated solution of CaSO4 in the same concentration of H2SO4. […] AGIIS is non-volatile at room temperature.

The structures appear in SMILES notation.

Take `O=S(=O)(O)O` [sulfuric acid]: the “irritation of a hand put into the solution” value is given as “an irritation would occur within a relatively short span of time”.
